Consider 20 compounds from patent publication US20090325959A1 (priority 2008, published 2009).

Like-named read-outs stand apart in the source and are kept apart here.

The subject of one series is NIH/3T3 cells. Put plainly: NIH/3T3 cell morphology assay (actin cytoskeleton disruption). Type of series: cell-based. The conditions noted are these: score 0 (no effect) to 4 (complete disruption) of the actin cytoskeleton; 60 minutes. On the procedure:
NIH/3T3 cells were grown in DMEM-H containing glutamine and 10% Colorado Calf Serum. Cells were passaged regularly prior to reaching confluence. Eighteen to 24 hours prior to experimentation, the cells were plated onto Poly-L-Lysine-coated glass bottom 24-well plates. On the day of experimentation, the cell culture medium was removed and was replaced with the same medium containing from 10 nM to 25 μM of the test compound, and the cells were incubated for 60 minutes at 37° C. The culture medium was then removed and the cells were washed with warmed PBS and fixed for 10 minutes with warmed 4% paraformaldehyde. The cells were permeabilized with 0.5% Triton-X, stained with TRITC-conjugated phalloidin and imaged using a Nikon Eclipse E600 epifluorescent microscope to determine the degree of actin disruption. Results were expressed as a numerical score indicating the observed degree of disruption of the actin cytoskeleton at the test concentration, ranging from 0 (no effect) to 4 (complete disruption), and were the average of at least 2 determinations.

For a further series, the target named is T1, ROCK2 (Homo sapiens, UniProt O75116).
T1 construct: purchased Upstate/Chemicon 14-451
T1 sequence (O75116 11-552 limits assumed): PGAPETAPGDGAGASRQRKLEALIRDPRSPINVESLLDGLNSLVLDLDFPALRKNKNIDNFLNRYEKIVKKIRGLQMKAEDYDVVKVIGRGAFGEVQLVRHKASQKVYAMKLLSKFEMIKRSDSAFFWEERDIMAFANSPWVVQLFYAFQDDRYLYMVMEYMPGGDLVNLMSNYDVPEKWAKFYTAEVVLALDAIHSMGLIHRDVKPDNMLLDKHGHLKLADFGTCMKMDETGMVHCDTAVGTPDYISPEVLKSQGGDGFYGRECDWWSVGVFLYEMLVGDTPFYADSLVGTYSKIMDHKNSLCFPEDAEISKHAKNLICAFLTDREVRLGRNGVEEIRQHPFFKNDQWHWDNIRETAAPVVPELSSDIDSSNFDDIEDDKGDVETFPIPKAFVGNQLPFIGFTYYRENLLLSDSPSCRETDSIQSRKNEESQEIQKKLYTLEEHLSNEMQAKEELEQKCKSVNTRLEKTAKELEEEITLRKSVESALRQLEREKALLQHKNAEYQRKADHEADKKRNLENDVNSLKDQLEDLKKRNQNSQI
Kind of series: Rho kinase inhibition assay (IMAP fluorescence polarization), ROCK2.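 Also: kinase reaction started with 10 µM ATP and run 60 min at room temperature, then phosphorylated substrate captured on IMAP beads for 30 min and fluorescence polarization read in mP.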 Type of series: biochemical. On the technique in general: In fluorescence polarisation assays a small probe gives low polarisation when free and higher when bound to something large.

The next series deals with T2, ROCK1 (Homo sapiens, UniProt Q13464).
T2 construct: purchased Upstate/Chemicon 14-601
T2 sequence (Q13464 17-535 limits assumed): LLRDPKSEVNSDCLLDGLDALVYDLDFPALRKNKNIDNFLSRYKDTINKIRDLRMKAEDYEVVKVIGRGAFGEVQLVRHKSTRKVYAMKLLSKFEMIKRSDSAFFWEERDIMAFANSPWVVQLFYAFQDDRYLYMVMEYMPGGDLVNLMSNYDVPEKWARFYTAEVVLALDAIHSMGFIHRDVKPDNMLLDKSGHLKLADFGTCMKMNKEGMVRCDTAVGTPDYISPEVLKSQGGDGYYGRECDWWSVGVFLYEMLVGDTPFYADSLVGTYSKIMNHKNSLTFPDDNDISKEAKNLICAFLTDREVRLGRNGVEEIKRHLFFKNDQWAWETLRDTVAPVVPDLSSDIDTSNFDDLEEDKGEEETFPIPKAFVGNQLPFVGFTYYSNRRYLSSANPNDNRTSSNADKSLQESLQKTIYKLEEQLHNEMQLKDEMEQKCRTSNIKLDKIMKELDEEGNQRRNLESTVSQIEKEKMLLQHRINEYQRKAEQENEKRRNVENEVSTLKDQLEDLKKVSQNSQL
Put plainly: Rho kinase inhibition assay (IMAP fluorescence polarization), ROCK1.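 Also: kinase reaction run 60 min at room temperature, then phosphorylated substrate captured on IMAP beads for 30 min, with fluorescence polarization read in mP.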 Type of series: biochemical.

The subject of a further series is human neutrophils. Put plainly: Human neutrophil chemotaxis induced by fMLP (modified Boyden chamber). The class given is cell-based. The conditions noted are these: Neutrophil. The text has this:
This assay is an in vitro assay of neutrophil chemotaxis that can be used to evaluate the ability of Rho Kinase inhibitor compounds of Formula I or II to inhibit the migration of human neutrophils, an inflammatory cell that has been implicated in the pathophysiology of allergic conjunctivitis.
Peripheral blood from healthy human volunteers was collected and the neutrophils were isolated by Ficoll-paque density centrifugation followed by dextran sedimentation and hypotonic lysis of the red blood cells. Neutrophil chemotaxis was assessed using a modified Boyden Chamber (Neuroprobe, 96-well) with a 3 μm pore polycarbonate membrane. The ability of the tested compounds to block chemotaxis induced by a 1 μM fMLP challenge during a one hour incubation at 37° C. with 5% CO2 was assessed in a dose response manner.

In a further series the target is T3, p70S6K human enzyme (Homo sapiens, UniProt P23443, T412E).
T3 construct: purchased Upstate Chemicon 14-486
T3 sequence (P23443 1-421 T412E limits assumed): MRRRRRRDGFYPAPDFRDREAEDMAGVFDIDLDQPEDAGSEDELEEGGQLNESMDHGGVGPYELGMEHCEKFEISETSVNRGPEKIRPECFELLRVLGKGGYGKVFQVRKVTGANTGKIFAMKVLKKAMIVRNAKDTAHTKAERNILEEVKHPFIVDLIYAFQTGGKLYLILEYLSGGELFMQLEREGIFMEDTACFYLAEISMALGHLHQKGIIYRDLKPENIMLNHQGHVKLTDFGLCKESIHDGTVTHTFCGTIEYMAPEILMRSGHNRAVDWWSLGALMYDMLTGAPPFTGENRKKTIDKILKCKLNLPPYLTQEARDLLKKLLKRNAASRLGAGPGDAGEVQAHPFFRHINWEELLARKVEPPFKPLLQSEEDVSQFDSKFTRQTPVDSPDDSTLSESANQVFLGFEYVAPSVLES
Kind of series: p70S6K inhibition assay (IMAP FP).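 Also: kinase reaction run at room temperature, phosphorylated substrate captured on IMAP beads and read as fluorescence polarization in mP, IC50 then converted to Ki.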 The class given is biochemical.

A short description of series [1]: Rat oral pharmacokinetics (plasma). The class given is in vivo. The conditions noted are these: 20-30 μmol/kg, mean n = 3.
Method: Plasma (EDTA K2 anticoagulant) was collected from male, cannulated, CD Sprague Dawley rats to determine the pharmacokinetics of formulations containing compound inhibitors of Rho kinase. Each animal was dosed orally with a 4 ml/kg solution or suspension of each test compound in 10 mM acetate buffered saline, pH 4.5 at a final concentration range of 20-30 μmol/kg. Blood was collected at 0.25, 0.5, 1, 2, 4, 6, 8, and 24 hours. Plasma samples were assayed for the concentration of the test compound using an on-line, solid phase extraction LC/MS/MS analysis system.
Samples were analyzed on a QSTAR Elite, hybrid quadrupole time-of-flight mass spectrometer (Applied Biosystems, Framingham, Mass.) coupled with a Symbiosis Pharma integrated, on-line SPE-HPLC system (Spark Holland Inc., Plainsboro, N.J.). Analyst QS 2.0 software was used for instrument control, data acquisition and processing. […] Mobile Phase A consisted of 0.1% ammonium hydroxide in water and Mobile Phase B consisted of 0.1% formic acid in acetonitrile. Pharmacokinetic analyses were performed using WinNonlin software version 5.2 (Pharsight Corporation, Mountain View, Calif.).
As determined from the plasma concentration versus time curves, the time to peak and peak exposure are represented by the values Tmax and Cmax, respectively. The AUC values (nM*hr) shown were calculated as the areas under the plasma concentration versus time curves from time zero through the time of the last observable value and represent the total exposure of the compound over the course of the study. Half-life values or the amount of time required for the plasma levels of the compound to decline to half the initial value are represented as t½.
Series [2] relates to A-10 rat thoracic aorta cells. Kind of series: PDGF-stimulated smooth muscle cell proliferation assay (BrdU incorporation).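 Also: cells kept in serum-free medium, BrdU allowed to incorporate for 24 h, then incorporated label detected fluorometrically with an anti-BrdU antibody.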 Type of series: cell-based. The conditions noted are these: A-10 cells, 10 ng/mL PDGF, BrdU incorporation, percent of total challenge-stimulated proliferation. In general terms: Incorporation of labelled thymidine or its analogues reports DNA synthesis.
The target of the next series is T4, Akt3 human enzyme (Homo sapiens, UniProt Q9Y243).
T4 construct: purchased Upstate Chemicon 14-502
T4 sequence (Q9Y243 whole entry): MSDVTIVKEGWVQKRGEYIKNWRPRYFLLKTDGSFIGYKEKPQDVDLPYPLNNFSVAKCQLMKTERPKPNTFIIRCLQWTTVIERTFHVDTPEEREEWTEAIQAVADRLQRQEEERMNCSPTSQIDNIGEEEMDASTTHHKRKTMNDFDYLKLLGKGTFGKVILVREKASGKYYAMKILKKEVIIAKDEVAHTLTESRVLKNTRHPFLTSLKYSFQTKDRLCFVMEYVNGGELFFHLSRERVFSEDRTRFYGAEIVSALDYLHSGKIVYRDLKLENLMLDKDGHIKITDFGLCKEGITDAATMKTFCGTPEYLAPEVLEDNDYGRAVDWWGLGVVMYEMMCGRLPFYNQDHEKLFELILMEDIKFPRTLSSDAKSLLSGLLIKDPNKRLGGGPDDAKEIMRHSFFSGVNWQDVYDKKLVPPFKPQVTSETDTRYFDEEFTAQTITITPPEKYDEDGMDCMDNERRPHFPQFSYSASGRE
Put plainly: Akt3 inhibition assay (IMAP FP).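 Also: kinase reaction run 60 min at room temperature after 30 µM ATP start, phosphorylated substrate captured on IMAP beads and read as fluorescence polarization (mP).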 The class given is biochemical.

Series [3] in a line: Compound plasma concentrations in unsensitized mice at 15 min post administration. The class given is in vivo. The settings on record: mouse, 15 μmol/kg; mean compound plasma concentration in mice at 15 minutes post oral administration; read-out: Mouse Oral PK.
Method: Additionally, compound concentrations were determined in the plasma and lungs of male, ovalbumin-sensitized, Balb/c mice from a murine model of asthma. Test compounds were formulated in water or 1% polysorbate 80 and dosed at 15 μmol/kg for intraperitoneal (IP) or oral (PO) administration or formulated for intratracheal (IT) administration and dosed at 5 μmol/kg, which directly targets the lungs. Following completion of the in vivo study, mice were euthanized and blood and plasma collected approximately 2.5-3 hours post administration of test compound for bronchodialator (BD) studies and 24 hours post administration for anti-inflamatory (AI) studies. Lungs were homogenized in Matrix A lysing tubes using a FastPrep 24 tissue and cell homogenizer (MP Biomedicals, Solon, Ohio). Both plasma samples and lung extracts were assayed for compound concentrations using an on-line, solid phase extraction LC/MS/MS system.
The subject of series [4] is ova-sensitized, ova-challenged mice. Put plainly: Prevention of airway hyperreactivity (Penh, methacholine) in mouse ovalbumin sensitization model. The class given is in vivo. The settings on record: days 27 to 31. On the procedure: The anti-inflammatory dosing paradigm consists of dosing the animals once a day starting on day 27 and finishing on either day 30 or 31 (1 hr prior to the aerosolized ovalbumin challenges on days 28 to 30) but not on day 32 when hyperreactivity evaluation occurs. […] Exposure to the methacholine doses consisted of a 3 minute period during which a nebulizer was aerosolizing the methacholine and an additional 3 minute period following the cessation of nebulization. […] Enhanced pause (Penh), a unitless index of airway hyperreactivity, is derived from the expiratory side of the respiratory waveform measured via the plethysmograph and is used as an indirect measure of airway resistance and hyperreactivity. […] Following the methacholine dose response, BALF was collected and all animals were anesthetized, bled and euthanized. […] The Penh value at each of the dose levels of methacholine represents the 6-minute average response. Change from baseline (CFB) in Penh was calculated at each methacholine dose and the area under the curve (AUC) for these CFB values was calculated using the trapezoidal rule. This same approach was applied for each mouse across multiple experiments. […] Data from equal experimental conditions across experiments performed on different days were pooled for statistical analysis and data reporting. […] A random intercept for each experiment was assumed to account for possible similarities of the results obtained from a given experiment (i.e., as a “blocking effect”). […] For FIG. 9, linear AUC values from compound treated mice were reported as a percent of linear AUC values from vehicle-treated ovalbumin-sensitized/ovalbumin-challenged (asthmatic) mice.

The mark [5] stands for this setting: 10 μM ATP, read-out: ROCK2 Ki, Avg.
Setting [6] is: 1 h, 1 μM fMLP challenge, one hour, read-out: Chemotaxis Avg. IC50.

Method for ROCK1: (§1) Following the pre-incubation, 10 μM ATP was added to initiate the reaction. After 60 minutes at room temperature, Molecular Devices IMAP™ binding solution was added to bind phosphorylated substrate. After 30 minutes of incubation in the presence of the IMAP™ beads, the fluorescence polarization was read and the ratio was reported as mP. IC50 values for compounds and EC50 values for ATP were calculated using the Prism software from Graphpad.
Method for ROCK2: as §1

In the case of `CS(=O)(=O)c1ccc(CN2CCC(Nc3ccc4[nH]ncc4c3)C2)cc1` (stereo not shown) [Compound 1.004, N-(1-(4-(methylsulfonyl)benzyl)pyrrolidin-3-yl)-1H-indazol-5-amine], the “Cell score at 1 μM” value in the series with NIH/3T3 cells was 1.8.
Usually Ki stands for the equilibrium dissociation constant of an inhibitor or competing ligand from its target. As for `CSc1ccc(CN2CCCC(Nc3ccc4[nH]ncc4c3)C2)cc1` (stereo not shown) [Compound 1.008, N-(1-(4-(methylthio)benzyl)piperidin-3-yl)-1H-indazol-5-amine], the inhibition constant Ki at ROCK2 (setting [5]) came out at 3.9 nM; at ROCK1 (Avg, 10 μM ATP), 30.5 nM. The “Cell score at 1 μM” value in the series with NIH/3T3 cells came to 2.
`Cc1ccc(CN2CCCC(Nc3ccc4[nH]ncc4c3)C2)c(C)c1` (stereo not shown) [Compound 1.024, N-(1-(2,4-dimethylbenzyl)piperidin-3-yl)-1H-indazol-5-amine]: the “Cell score at 1 μM” value with NIH/3T3 cells was 2.4.
The same measure, in the same setting: in the case of `OCc1ccc(CN2CCCC(Nc3ccc4[nH]ncc4c3)C2)cc1` (stereo not shown) [Compound 1.025, (4-((3-(1H-indazol-5-ylamino)piperidin-1-yl)methyl)phenyl)methanol] it was 2.
In general, IC50 refers to the point on the concentration scale where inhibition reaches its midpoint. With `C#Cc1ccc(CN2CCCC(Nc3ccc4[nH]ncc4c3)C2)cc1` (stereo not shown) [Compound 1.034, N-(1-(4-ethynylbenzyl)piperidin-3-yl)-1H-indazol-5-amine], the Ki on ROCK2 (setting [5]) was determined as 5.3 nM; on ROCK1 (Avg, 10 μM ATP), 36 nM. In addition, the “Cell score at 1 μM” value in the series with NIH/3T3 cells is recorded as 2. Also, in the series with human neutrophils (setting [6]), the IC50 is 5600 nM.
For the compound `OCCOc1cccc(CN2CCCC(Nc3ccc4[nH]ncc4c3)C2)c1` (stereo not shown) [Compound 1.039, 2-(3-((3-(1H-indazol-5-ylamino)piperidin-1-yl)methyl)phenoxy)ethanol], the Ki came out at 24.7 nM on ROCK2 (setting [5]) and 209 nM on ROCK1 (Avg, 10 μM ATP). For the same compound, the “Cell score at 1 μM” value in the series on NIH/3T3 cells worked out at 2.
Turning to `CS(=O)(=O)Cc1cccc(CN2CCCC(Nc3ccc4[nH]ncc4c3)C2)c1` (stereo not shown) [Compound 1.041, N-(1-(3-(methylsulfonylmethyl)benzyl)piperidin-3-yl)-1H-indazol-5-amine], the “Cell score at 1 μM” value in the series with NIH/3T3 cells worked out at 2.5.
Same read-out and setting: under `Oc1cccc(CN2CCCC(Nc3ccc4[nH]ncc4c3)C2)c1` (stereo not shown) [Compound 1.046, 3-((3-(1H-indazol-5-ylamino)piperidin-1-yl)methyl)phenol] stands 2.5; under `CS(=O)(=O)c1cccc(CN2CCCC(Nc3ccc4[nH]ncc4c3)C2)c1` (stereo not shown) [Compound 1.048, N-(1-(3-(methylsulfonyl)benzyl)piperidin-3-yl)-1H-indazol-5-amine], 1.5.
As to `CS(=O)(=O)Nc1cccc(CN2CCCC(Nc3ccc4[nH]ncc4c3)C2)c1` (stereo not shown) [Compound 1.051, N-(3-((3-(1H-indazol-5-ylamino)piperidin-1-yl)methyl)phenyl)methanesulfonamide], the Ki on ROCK2 (setting [5]) came out at 3.8 nM; at ROCK1 (Avg, 10 μM ATP), 37.2 nM. Besides, the “Cell score at 1 μM” value in the series on NIH/3T3 cells turned out to be 2.5.
With `c1cc2cc(CN3CCCC(Nc4ccc5[nH]ncc5c4)C3)ccc2o1` (stereo not shown) [Compound 1.052, N-(1-(benzofuran-5-ylmethyl)piperidin-3-yl)-1H-indazol-5-amine], the “Cell score at 1 μM” value in the series on NIH/3T3 cells came out at 2.8.
On the same count and under the same terms, in the case of `Clc1ccc(CN2CCC(Nc3ccc4[nH]ncc4c3)C2)cc1Cl` (stereo not shown) [Compound 1.062, N-(1-(3,4-dichlorobenzyl)pyrrolidin-3-yl)-1H-indazol-5-amine] it was 2.3.
Still for that read-out and setting: in the case of `Cc1cccc(CN2CCCC(Nc3ccc4[nH]ncc4c3)C2)c1` (stereo not shown) [Compound 1.066, N-(1-(3-methylbenzyl)piperidin-3-yl)-1H-indazol-5-amine] it was 2; in that of `c1ccc(CN2CCC(Nc3cccc4cnccc34)C2)cc1` (stereo not shown) [Compound 2.006, N-(1-benzylpyrrolidin-3-yl)isoguinolin-5-amine], 2.8.
`Clc1ccc(CN2CCC(Nc3cccc4cnccc34)C2)cc1Cl` (stereo not shown) [Compound 2.016, N-(1-(3,4-dichlorobenzyl)pyrrolidin-3-yl)isoquinolin-5-amine]: the Ki at ROCK2 (setting [5]) amounted to 42.4 nM; on ROCK1 (Avg, 10 μM ATP), 101 nM. Also, in the series with NIH/3T3 cells, the “Cell score at 1 μM” value stood at 1.8.
For the compound `COc1ccc(CN2CCC(Nc3cccc4cnccc34)C2)cc1` (stereo not shown) [Compound 2.017, N-(1-(4-methoxybenzyl)pyrrolidin-3-yl)isoquinolin-5-amine], the “Cell score at 1 μM” value in the series on NIH/3T3 cells was found to be 2.
The same measure, in the same setting: under `FC(F)(F)c1cccc(CN2CCC(Nc3cccc4cnccc34)C2)c1` (stereo not shown) [Compound 2.018, N-(1-(3-(trifluoromethyl)benzyl)pyrrolidin-3-yl)isoquinolin-5-amine] stands 1.8.
With `CSc1ccc(CN2CC[C@@H](Nc3cccc4cnccc34)C2)cc1` [Compound 2.026, (R)-N-(1-(4-(methylthio)benzyl)pyrrolidin-3-yl)isoquinolin-5-amine], the Ki on p70S6K human enzyme (30 μM ATP, Ki=IC50/(1+([ATP Challenge]/EC50 ATP)), read-out: p70S6K Ki, Avg) amounted to 536 nM; on p70S6K human enzyme (average Ki, read-out: p70S6K Ki), 536 nM; at ROCK2 (setting [5]) it was 13 nM; at ROCK2 (average Ki, read-out: ROCK2 Ki) it was 13 nM; on ROCK1 (Avg, 10 μM ATP), 38 nM; on ROCK1 (average Ki) it was 38 nM. The inhibition constant Ki came to 2080 nM on Akt3 human enzyme (30 μM ATP, Ki=IC50/(1+([ATP Challenge]/EC50 ATP)), read-out: Akt3 Ki, Avg) and 2080 nM at Akt3 human enzyme (average Ki, read-out: Akt3 Ki). Further, the “AUC (0-last)” value in [1] was “BLQ”. For the same compound, the Cmax result in series [1] is “BLQ”. Moreover, the Tmax entry in series [1] is “BLQ”. For the same compound, the Vz_F entry in [1] is “BLQ”. In addition, the t½ entry in [1] is given as “BLQ”. Besides, the “Percent of PDGF Induced Proliferation at 1 μM Avg” value in [2] (1 μM test compound) amounted to 74.5%. For the same compound, the “Percent of PDGF Induced Proliferation at 10 μM Avg” value in series [2] (10 μM test compound) came to 52.0%. The concentration for half-maximal inhibition (IC50) in the series on human neutrophils (1 h, read-out: Chemotaxis Avg. IC50) stood at 3800 nM; in the series on human neutrophils (read-out: Chemotaxis IC50) it was 3800 nM. The concentration at 15 min in series [3] turned out to be 629 nM.
Consider `C[C@@H](N)[C@H]1CC[C@H](C(=O)Nc2ccncc2)CC1` [Compound Y-27632, reference compound], for which the IC50 in the series on human neutrophils (setting [6]) turned out to be 6760 nM. Moreover, the “log10AUC (Penh)” value in series [4] (30 μmol/kg/oral) is 1.9942.
For `C[C@@H]1C[C@H]2[C@@H]3CCC4=CC(=O)C=C[C@]4(C)[C@@]3(F)[C@@H](O)C[C@]2(C)[C@@]1(O)C(=O)CO` [Dexamethasone, dexamethasone, reference compound], the “log10AUC (Penh)” value in series [4] (1 mg/kg/oral) is reported as 2.0216.
